# From patent US20230348362A1, “LIPID COMPOUNDS AND LIPID NANOPARTICLE COMPOSITIONS” (Suzhou Abogen Biosciences Co., Ltd., priority 2021, published 2023)
# Legend:
# Type in all cases: physicochemical
# [1] = Apparent pKa of LNP formulations, TNS fluorescence assay; conditions: LNP cationic lipid/DSPC/cholesterol/DMG-PEG 50/10/38.5/1.5 mol %
# Method in brief: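 LNPs (cationic lipid/DSPC/cholesterol/DMG-PEG 50/10/38.5/1.5 mol %) diluted to 0.1 mg/mL total lipid in citrate/phosphate/borate/NaCl buffers spanning pH 3–9 with TNS. Fluorescence (ex 325, em 435 nm) read at room temperature; pKa taken as the pH at half-maximal intensity from sigmoidal fit.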
# [2] = Encapsulation efficiency of lipid nanoparticles, Quant-it Ribogreen RNA assay; conditions: LNP of lipid/DSPC/cholesterol/PEG-lipid 50:10:38.5:1.5 encapsulating hEPO mRNA
# Method in brief: (§1)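 LNPs made from ionizable lipid/DSPC/cholesterol/PEG-lipid (50:10:38.5:1.5) and mRNA in citrate pH 4 by microfluidic mixing, lipid:mRNA about 10:1–30:1 w/w, then dialysed into DPBS and filtered. Size and PDI measured by DLS in backscatter mode; encapsulation efficiency measured by RiboGreen assay.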
# [3] = Lipid nanoparticle size and polydispersity by dynamic light scattering; conditions: LNP of lipid/DSPC/cholesterol/PEG-lipid 50:10:38.5:1.5 encapsulating hEPO mRNA
# Method in brief: as §1
Apparent Pka [1],Encapsulation Efficiency [2] [%],polydispersity [3],size (nm) [3] [nm],SMILES
5.990,94.56,0.267,74.57,CCCCCCCCC(CCCCCCCC)COC(=O)CCCCCN(CCO)CCN(CCCCCOC(=O)OCC(CCCCCCCC)CCCCCCCC)C1CCCCC1 [Compound 133]
6.395,93.03,0.043,70.98,CCCCCCCCOC(=O)C(CCCCN(CCN(CCO)CCCCCC(=O)OCC(CCCCCC)CCCCCCCC)C1CCC1)C(=O)OCCCCCCCC (centres unmarked) [Compound 223]
6.176,86.6,0.168,70.21,CCCCCCCCC(CCCCCCCC)COC(=O)CCCCCN(CCO)CCN(CCCCCC(=O)OCC(CCCCCCCC)CCCCCCCC)C1CCC1 [Compound 10]
6.831,88.64,0.040,84.74,CCCCCCCCC(CCCCCC)CNC(=O)CCCCCN(CCO)CCN(CCCCC(COC(=O)CCCCCCC)COC(=O)CCCCCCC)C1CCC1 (centres unmarked) [Compound 136]
6.552,93.35,0.117,86.61,CCCCCCCCC(CCCCCC)COC(=O)CCCCCN(CCCCN(CCO)CCCCC(COC(=O)CCCCCCC)COC(=O)CCCCCCC)C1CCCC1 (centres unmarked) [Compound 191]
6.567,92.47,0.031,77.78,CCCCCCCCC(CCCCCC)CNC(=O)CCCCCCN(CCO)CCN(CCCCC(COC(=O)CCCCCCC)COC(=O)CCCCCCC)C1CCCCCC1 (centres unmarked) [Compound 232]
6.814,95.02,0.043,86.61,CCCCCCCCC(CCCCCCCC)COC(=O)CCCCCN(CCO)CCCCN(CCCCCC(=O)OCC(CCCCCCCC)CCCCCCCC)C1CCC1 [Compound 86]

# Second part, the molecule before the results:
SMILES,Apparent Pka [1],Encapsulation Efficiency [2] [%],polydispersity [3],size (nm) [3] [nm]
CCCCCCCCCCCOC(=O)CCCCCN(CCN(CCO)CCCCCC(=O)OCC(CCCCCCCC)CCCCCCCC)C1CCC(F)(F)CC1 [Compound 49],6.153,95.5,0.1,55.04
CCCCCCCCCCCC(=O)OCCCCCN(CCN(CCO)CCOCCOC(=O)CC(CCCCCCCC)CCCCCCCC)C1CCC1 [Compound 97],6.912,88.12,0.045,76.13
CCCCCCCCCCCOC(=O)CCCCCN(CCN(CCO)CCCCCCC(=O)OCC(CCCCCCCC)CCCCCCCC)C1CCCCC1 [Compound 43],6.346,89.6,0.07,66.41
CCCCCCCCC(CCCCCCCC)COC(=O)CCOCCN(CC=C(C)C)CCN(CCO)CCOCCC(=O)OCC(CCCCCCCC)CCCCCCCC [Compound 120],6.546,94.33,0.043,75.42
CCCCCCCCCCCOC(=O)CCCCCN(CCN(CCO)CCCCCC(=O)OCC(CCCCCCCC)CCCCCCCC)C1CC(OC)C1 (centres unmarked) [Compound 54],6.51,93.4,0.065,77.99
CCCCCCCCCCC(=O)OCC(CCCCN(CCO)CCN(CCCCC(COC(=O)CCCCCCCCCC)COC(=O)CCCCCCCCCC)C1CCC1)COC(=O)CCCCCCCCCC [Compound 168],6.537,91.48,0.107,78.08
CCCCCCCCC(CCCCCCCC)COC(=O)CCCCCN(CCO)CCN(CCCCCC(=O)OCC(CCCCCCCC)CCCCCCCC)CCC(C)C [Compound 118],6.044,94.10,0.121,57.96
